Assay results as given in a melting point compilation (Tetko et al.).

melting point [°C]	Compound
106 to 108	O=C(O)CCCSc1ccc(Cl)cc1
79 to 81	NCC(=O)Nc1cccc(Br)c1
144 to 146	COc1ccc(NS(C)(=O)=O)c(N)c1
158 to 160	NC(=O)c1c(-c2ccc(C(F)(F)F)cc2)csc1N
103 to 105	CC(=O)c1sc(-c2ccc(Br)cc2)nc1C
146 to 148	CNCCCc1cc(-c2ccc(F)cc2)no1
197 to 199	Nc1nnc(C23CC4CC(CC(C4)C2)C3)s1
117 to 119	CC(C(=O)O)S(=O)(=O)c1ccc(F)cc1 (stereo unspecified)
103 to 105	N#Cc1cnc2ccc(OC(F)F)cc2c1Cl
92 to 94	COc1ccc(-c2nc(C)c(C(C)=O)s2)cc1
167 to 169	O=C(O)COc1ccc(Cl)cc1C1CCCCC1
283 to 285	FC(F)Oc1ccc(CNC23CC4CC(CC(C4)C2)C3)cc1
89 to 91	NC(CO)c1ccc(Br)cc1 (stereo unspecified)
95 to 97	COc1ccc(CCC(=O)O)cc1Br
144 to 146	O=C(O)CCN1C(=O)CSc2ccccc21
139 to 141	Nc1sc2c(c1C(=O)c1ccc(Cl)cc1)CCCC2
69 to 71	CCOC(=O)c1ccc(NCC2CC2)cc1
155 to 157	O=C(O)c1ccc(Oc2ccc(F)cc2[N+](=O)[O-])c(Cl)c1
139 to 141	CS(=O)(=O)NCc1ccc(C(=O)O)o1
89 to 91	Nc1cccc(-c2nc(C3CC3)no2)c1
113 to 115	CC(C)S(=O)(=O)Cc1cccc(N)c1
176 to 178	COc1ccc2nc(C#N)ccc2c1

melting point [°C]	Compound
129 to 131	Nc1ccc(OCc2ccncc2)cc1
34 to 36	c1ccc(OC2CCNCC2)cc1
169 to 171	Nc1cccc2ccncc12
147 to 149	O=[N+]([O-])c1ccccc1S(=O)(=O)N1CCNCC1
115 to 117	CC(c1nnc(S)n1-c1ccc(F)cc1)N1CCCCC1 (stereo unspecified)
225 to 227	O=C(O)c1cccc(S(=O)(=O)NCc2ccccc2)c1
73 to 75	OC1CCCOc2cc(Br)ccc21 (stereo unspecified)
192 to 194	Nc1ccc(-c2nc(C3CC3)n[nH]2)cc1
190 to 192	O=C(O)C1=NN(Cc2ccc(F)cc2)C(=O)CC1
198 to 200	CCOc1ccc(-c2nnc(SC(F)F)n2CCC(=O)O)cc1
44 to 46	COCCOc1ccc(C#N)cc1
144 to 146	CNCc1cccc(O)c1
95 to 97	COc1ccc(C2(C(=O)O)CCC2)cc1
208 to 210	Cc1oncc1C(=O)Nc1ccc(CC(=O)O)cc1
111 to 113	NC(CCN1CCN(Cc2ccccc2)CC1)=NO
200 to 202	O=C(CCl)c1ccc2c(c1)-c1cc(C(=O)CCl)ccc1C2
30 to 32	CCCc1ccc(C(=O)CCl)cc1
39 to 41	N#CCNc1cccc(F)c1
183 to 185	CC(Cl)C(=O)Nc1ccc([N+](=O)[O-])cc1C(F)(F)F (stereo unspecified)
62 to 64	ClCc1ccc(Oc2cccc(Cl)c2Cl)cc1
32 to 34	COc1ccc(COc2cc(Br)ccc2C(F)(F)F)cc1
161 to 163	CC(Cl)c1nnc(-c2ccc([N+](=O)[O-])cc2)o1 (stereo unspecified)

melting point [°C]	Compound
104 to 106	Cc1ccc(-c2nc(CC(=O)O)cs2)c(C)c1
129 to 131	Cc1ccccc1CC(=O)NN
66 to 68	Cc1ccc(C#N)c(OC2CCCC2)c1
120 to 122	COc1ccc(NS(=O)(=O)c2cccs2)cc1
128 to 130	Nc1ccc(S(=O)(=O)NCC(F)(F)F)cc1
129 to 131	Nc1cccc(C(=O)N2CCCCC2CCO)c1 (stereo unspecified)
108 to 110	CCCNC(=O)c1ccc(Cl)nc1
109 to 111	CC(C)CNC(=O)c1cc(N)ccc1Cl
115 to 117	O=C(O)c1cccc(Oc2cccc(C(F)(F)F)c2)c1
125 to 127	COc1cccc(NC(=O)c2ccccc2N(C)C(=O)CCC(=O)O)c1
56 to 58	CC(O)Cc1cc(F)ccc1Br (stereo unspecified)
74 to 76	N#Cc1ccnc(OCc2ccccc2)c1
87 to 89	CC1(C)CC(=O)c2ccccc2O1
109 to 111	O=C(O)c1c(Cl)cccc1Oc1ccc(Cl)cc1
133 to 135	Nc1nc(Cc2ccccc2)ns1
67 to 69	N#CCC(=O)c1ccc(F)c(F)c1
181 to 183	N#Cc1ccccc1COc1cccc(C(=O)O)c1
86 to 88	CNc1ccc(N)c(C(F)(F)F)c1
64 to 66	O=[N+]([O-])c1ccccc1CS(=O)(=O)Cl
95 to 97	CN1C(=O)CCC(CO)C1c1ccc(C(F)(F)F)cc1 (stereo unspecified)
211 to 213	Cc1nc(O)c2c(n1)CN(Cc1ccccc1)CC2

Continued, molecule first:

Compound	melting point [°C]
CC(C)C(O)(C(=O)O)c1ccccc1 (stereo unspecified)	148 to 150
CCCNc1ccc(CN2CCN(C)CC2)cn1	69 to 71
Cc1nn(-c2ccc(Br)cc2)c(C)c1C(=O)O	231 to 233
O=C(O)c1cc(-c2ccccc2Cl)nc2ccccc12	273 to 275
Cc1c(Br)ccc(C(=O)O)c1N	221 to 223
Cc1ccc2oc(S)nc2n1	139 to 141
CCc1n[nH]c(=O)c(C(=O)O)c1CC	154 to 156
CC(=O)c1ccc(N)nc1	107 to 109
O=C(O)C=Cc1cc(Br)c2c(c1)OCCO2	267 to 269
CC(C)(C)OC(=O)N1CCCC(COS(C)(=O)=O)C1 (stereo unspecified)	76 to 78
O=C1CS(=O)CCN1 (stereo unspecified)	119 to 121
CN(C)c1ccc(C(=N)N)c(F)c1	133 to 135
O=C(O)/C=C/C1=C(Cl)c2ccccc2S1(=O)=O	266 to 268
c1ccc2oc(C3CCNCC3)nc2c1	111 to 113
CC(O)c1ccc(S(=O)(=O)Nc2ccc(C(=O)O)cc2)cc1 (stereo unspecified)	199 to 201
NS(=O)(=O)Cc1ccccc1[N+](=O)[O-]	131 to 133
O=S(=O)(Cl)c1cccc(-c2nnco2)c1	87 to 89
[N-]=[N+]=Nc1ccc(Br)cc1Cl	60 to 62
O=C(O)c1ncncc1Cl	153 to 155
CCOC(=O)c1sc(O)nc1C	171 to 173
Cc1cc(C)c2nc(NN)cc(C)c2c1	113 to 115
O=C1C=C(Br)C(=O)N1c1ccccc1	159 to 161
Cc1ccc(SC(C(=O)O)c2ccccc2)c(C)c1 (stereo unspecified)	130 to 132
CCOC(=O)CNC(=O)OCC(F)(F)F	38 to 40
Cc1cc(N)c2cccnc2c1C	124 to 126
O=C(O)CCNC(=O)c1cccs1	220 to 222

Compound	melting point [°C]
NC(=S)Cc1nccn1Cc1ccccc1	131 to 133
COc1ccc(N2C(=O)CC(=O)NC2=S)cc1	241 to 243
c1nc(N2CCNCC2)c2ccsc2n1	71 to 73
Nc1ccc(Br)nc1Cl	113 to 115
CCOC(=O)c1c(CC(C)C)csc1N	58 to 60
CCc1nn(C)c(CC)c1S(N)(=O)=O	177 to 179
O=C(O)CNC(=O)C1CCCC1	109 to 111
CC1CNC(=Nc2ccc(C(C)C)cc2)S1 (stereo unspecified)	109 to 111
Cc1cccc(C)c1CC(=O)O	117 to 119
Cc1[nH]c(=O)sc1S(=O)(=O)N1CCCC1C(=O)O (stereo unspecified)	247 to 249
O=C(O)c1ccc(/C=C/c2ccc3ccccc3n2)cc1	263 to 265
NNc1nc2cc(Cl)ccc2s1	209 to 211
Cc1sc2nc(-c3cccnc3)nc(Cl)c2c1-c1ccccc1	144 to 146
CN(C)C(=O)c1cccc(O)c1	126 to 128
NC(=O)c1ccc(=O)[nH]n1	326 to 328
O=C(O)C1=CC=CN2CCS(=O)(=O)N=C12	313 to 315
CCN(CC)Cc1nc(Cl)c2c(C)c(C)sc2n1	30 to 32
Cc1cccc(-n2nnnc2S)c1	156 to 158
Cc1oc(C(=O)O)cc1S(=O)(=O)N(C)C	151 to 153
O=Cc1cnc(-c2cccnc2)s1	139 to 141
CNC(=O)c1cncc(C=CC(=O)O)c1	253 to 255
O=S(=O)(Cl)c1cc(Br)ccc1Cl	64 to 66
CCOc1ccc(Br)cc1S(=O)(=O)Cl	109 to 111
O=C(O)CN1C(=O)c2cc(Cl)c(Cl)cc2C1=O	309 to 311
CC(=O)NNC(=O)C(C)Cl (stereo unspecified)	156 to 158
CCN(CC)S(=O)(=O)c1ccc(C)c(N)c1	108 to 112

Compound	melting point [°C]
CC(=O)c1cc(C#N)c(S)nc1C	127 to 129
O=C(O)c1ccc(Cl)[nH]c1=O	224 to 226
Cc1c(C(=O)O)c(=O)oc2cc(F)ccc12	169 to 171
O=C1CC(=O)N(c2cccnc2)C(=S)N1	229 to 231
CCOC(=O)Cc1nc(-c2ccc(OC)c(OC)c2)no1	75 to 77
N#Cc1ccc2nccnc2c1	179 to 181
NC(=O)c1cc(-c2ccccc2)on1	202 to 204
NS(=O)(=O)c1cc(Br)ccc1Cl	179 to 181
Cc1nn(-c2cccc(Cl)c2)c2ncc(Br)cc12	114 to 116
CCCS(=O)(=O)N1CCCC(C(=O)O)C1 (stereo unspecified)	122 to 124
C[C@H](NC(=O)c1cccc([N+](=O)[O-])c1)C(=O)O	159 to 161
CC(C)(C)Sc1ccc(C(N)=S)cn1	178 to 180
CC(C)(C)OC(=O)NNCCS(C)(=O)=O	105 to 107
COc1ccc(-c2nnc(S)o2)cc1OC	251 to 253
Nc1ncc(Cc2c(Cl)cccc2Cl)s1	139 to 141
O=C(O)CNC(=O)OCC(F)(F)F	98 to 100
Oc1ccc2nc[nH]c2c1	215 to 217
O=C(Nc1ccc2c(c1)OCO2)C(Cl)(Cl)Cl	99 to 101
O=C(O)CCNc1ccccn1	169 to 171
NC(=O)CCc1csc(N)n1	141 to 143
COCc1nnc(-c2cccc(C(=O)O)c2)o1	139 to 141
CN(C)CC(O)C(F)(F)F (stereo unspecified)	63 to 65
Cc1nn(Cc2cccc(Br)c2)c(C)c1C(=O)O	174 to 176
Cn1cc(S(=O)(=O)Cl)c([N+](=O)[O-])n1	70 to 72
